Experimental findings from PubChem BioAssay AID192 (DTP/NCI, 2004) are described below.

“And” between values parts separate entries of the source, which are not always exact repeats. Equal entries are not always repeated. Inconclusive results and toxic doses are left out.

The test system of this assay is BDF1 mice, B16 melanoma ip, median survival T/C. The assay can be described thus: NCI In Vivo Anticancer Drug Screen. Data for tumor model B16 Melanoma (intraperitoneal) in B6D2F1 (BDF1) mice. To be noted: endpoint: median survival time, higher = longer survival. Put shortly:
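Values are ratios of treated (T) to vehicle-control (C) measurements of survival or tumor size in tumor-bearing mice.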

Where [1] appears, read: dose: 50.0 mg/kg/injection, schedule: Q01DX009 (ip), vehicle: saline.
Where [2] appears, read: dose: 100.0 mg/kg/injection, schedule: Q01DX009 (ip), vehicle: Klucel (hydroxypropylcellulose) (HPC).
Where [3] appears, read: dose: 200.0 mg/kg/injection, schedule: Q01DX009 (ip), vehicle: Klucel (hydroxypropylcellulose) (HPC).
Where [4] appears, read: dose: 12.5 mg/kg/injection, schedule: Q01DX009 (ip), vehicle: saline with Tween-80.
[5] abbreviates: dose: 50.0 mg/kg/injection, schedule: Q01DX009 (ip), vehicle: saline with Tween-80.
[6] abbreviates: dose: 100.0 mg/kg/injection, schedule: Q01DX009 (ip), vehicle: saline.

Regarding `CC[S][Hg][Cl]`, the T/C was 93 % of control (dose: 0.75 mg/kg/injection, schedule: Q04DX003 (ip), vehicle: saline with Tween-80); 100 % of control (dose: 1.5 mg/kg/injection, schedule: Q04DX003 (ip), vehicle: saline with Tween-80); 97 % of control (dose: 3.0 mg/kg/injection, schedule: Q04DX003 (ip), vehicle: saline with Tween-80); 86 % of control (dose: 6.25 mg/kg/injection, schedule: Q04DX003 (ip), vehicle: saline with Tween-80).

On to `N#CCCC1C2CCC(C2)C1C#N` (stereo not given), for which the T/C is 112 % of control (dose: 5.0 mg/kg/injection, schedule: Q01DX009 (ip), vehicle: Klucel (hydroxypropylcellulose) (HPC)) and 95 % of control (dose: 10.0 mg/kg/injection, schedule: Q01DX009 (ip), vehicle: Klucel (hydroxypropylcellulose) (HPC)).

In the case of `COc1cc2c(c(OC)c1OC)-c1ccc(OC)c(=O)cc1[C@@H](NC(=O)c1ccccc1)CC2`, the T/C was 173 % of control and 190 % of control (dose: 1.0 mg/kg/injection, schedule: Q01DX009 (ip), vehicle: Klucel (hydroxypropylcellulose) (HPC)); 156 % of control and 161 % of control (dose: 2.0 mg/kg/injection, schedule: Q01DX009 (ip), vehicle: Klucel (hydroxypropylcellulose) (HPC)).

As for `CC(C)[C@]12O[C@H]1[C@@H]1O[C@]13[C@]1(O[C@H]1C[C@H]1C4=C(CC[C@@]13C)C(=O)OC4)[C@@H]2O`, the T/C was 114 % of control (dose: 8.0 micrograms/kg/injection, schedule: Q01DX009 (ip), vehicle: saline + alcohol); 119 % of control (dose: 12.5 micrograms/kg/injection, schedule: Q01DX009 (ip), vehicle: saline with Tween-80); 109 % of control (dose: 16.0 micrograms/kg/injection, schedule: Q01DX009 (ip), vehicle: saline + alcohol); 112 % of control (dose: 25.0 micrograms/kg/injection, schedule: Q01DX009 (ip), vehicle: saline with Tween-80); 104 % of control (dose: 32.0 micrograms/kg/injection, schedule: Q01DX009 (ip), vehicle: saline + alcohol); 124 % of control (dose: 50.0 micrograms/kg/injection, schedule: Q01DX009 (ip), vehicle: saline with Tween-80). Moreover, the T/C was 104 % of control (dose: 64.0 micrograms/kg/injection, schedule: Q01DX009 (ip), vehicle: saline + alcohol); 107 % of control (dose: 100.0 micrograms/kg/injection, schedule: Q01DX009 (ip), vehicle: saline with Tween-80); 122 % of control (dose: 200.0 micrograms/kg/injection, schedule: Q01DX009 (ip), vehicle: saline with Tween-80); 100 % of control (dose: 400.0 micrograms/kg/injection, schedule: Q01DX009 (ip), vehicle: saline with Tween-80).

Turning to `CN(C)NCCC#N`, the T/C was 101 % of control (dose: 33.0 mg/kg/injection, schedule: Q01DX009 (ip), vehicle: saline); 104 % of control under setting [1]; 104 % of control and 206 % of control (dose: 75.0 mg/kg/injection, schedule: Q01DX009 (ip), vehicle: saline); 100 % of control (dose: 113.0 mg/kg/injection, schedule: Q01DX009 (ip), vehicle: saline).

With `CC(C)c1ccc(NC(=O)Nc2cc(Cl)ccc2Cl)cc1`, the T/C is 93 % of control (dose: 4.0 mg/kg/injection, schedule: Q01DX009 (ip), vehicle: gum acacia); 90 % of control (dose: 8.0 mg/kg/injection, schedule: Q01DX009 (ip), vehicle: gum acacia); 93 % of control (dose: 16.0 mg/kg/injection, schedule: Q01DX009 (ip), vehicle: gum acacia).

`N#Cc1ccc(/C=C/C(=O)c2ccccc2)cc1`: the T/C by setting is: under setting [2], 101 % of control; under setting [3], 101 % of control.

On to `COC(=O)c1ccc[n+](CCc2c[nH]c3ccccc23)c1`, for which the T/C is, setting by setting: under setting [4], 108 % of control; (dose: 25.0 mg/kg/injection, schedule: Q01DX009 (ip), vehicle: saline with Tween-80) 99 % of control; under setting [5], 97 % of control.

In the case of `CC(=O)NSCC(NC(=O)OC(C)(C)C)C(=O)O` (stereo not given), the T/C is 100 % of control under setting [1]; 101 % of control under setting [6]; 96 % of control (dose: 200.0 mg/kg/injection, schedule: Q01DX009 (ip), vehicle: saline).

`O=[N+]([O-])c1cc([N+](=O)[O-])cc(S(=O)(=O)O)c1`: the T/C is 108 % of control (dose: 25.0 mg/kg/injection, schedule: Q04DX003 (ip), vehicle: saline); 97 % of control (dose: 50.0 mg/kg/injection, schedule: Q04DX003 (ip), vehicle: saline); 87 % of control (dose: 100.0 mg/kg/injection, schedule: Q04DX003 (ip), vehicle: saline).

On to `O=C(Oc1ccc(Cl)cc1)c1ccc(Cl)cc1`, for which the T/C (dose: 75.0 mg/kg/injection, schedule: Q04DX003 (ip), vehicle: Klucel (hydroxypropylcellulose) (HPC)) is 100 % of control.

Turning to `CCN(CC)C(C)CN1c2ccccc2Sc2ccccc21` (stereo not given), the T/C is 95 % of control (dose: 6.25 mg/kg/injection, schedule: Q01DX009 (ip), vehicle: saline); 105 % of control (dose: 12.5 mg/kg/injection, schedule: Q01DX009 (ip), vehicle: saline); 105 % of control (dose: 25.0 mg/kg/injection, schedule: Q01DX009 (ip), vehicle: saline); 112 % of control under setting [1]; 112 % of control under setting [6].

As for `O=c1c2ccccc2[nH]c(=S)n1C1CCCCC1`, the T/C was 90 % of control under setting [2] and 90 % of control under setting [3].

As for `Cc1cc(C)c(C(Cl)(Cl)Cl)c(C)c1Cl`, the T/C was 93 % of control (dose: 1.56 mg/kg/injection, schedule: Q01DX009 (ip), vehicle: saline with Tween-80); 90 % of control (dose: 3.13 mg/kg/injection, schedule: Q01DX009 (ip), vehicle: saline with Tween-80); 99 % of control (dose: 6.25 mg/kg/injection, schedule: Q01DX009 (ip), vehicle: saline with Tween-80); 103 % of control under setting [4].

Turning to `CC12CC(C(=O)O)C3(O)CC(C)(C1)CC(C)(C2)C3` (stereo not given) (tested in a mixture with another compound), the T/C is 97 % of control and 101 % of control (dose: 12.5 mg/kg/injection, schedule: Q01DX009 (ip), vehicle: Klucel (hydroxypropylcellulose) (HPC)); 93 % of control and 107 % of control (dose: 25.0 mg/kg/injection, schedule: Q01DX009 (ip), vehicle: Klucel (hydroxypropylcellulose) (HPC)); 94 % of control and 96 % of control (dose: 50.0 mg/kg/injection, schedule: Q01DX009 (ip), vehicle: Klucel (hydroxypropylcellulose) (HPC)); 96 % of control and 103 % of control under setting [2]; 94 % of control and 98 % of control under setting [3].

In the case of `CN(C)c1c(-c2ccccc2)cc(-c2ccccc2)[nH]c1=O`, the T/C was 92 % of control under setting [5] and 86 % of control (dose: 100.0 mg/kg/injection, schedule: Q01DX009 (ip), vehicle: saline with Tween-80).

With `CCC1(O)CC(OC2CC(N(C)C)C(OC3CC4OC5CC(=O)C(C)OC5OC4C(C)O3)C(C)O2)c2c(cc3c(c2O)C(=O)c2c(O)ccc(O)c2C3=O)C1C(=O)OC` (stereo not given), the T/C was 88 % of control (dose: 0.75 mg/kg/injection, schedule: Q01DX009 (ip), vehicle: saline); 97 % of control (dose: 0.75 mg/kg/injection, schedule: Q04DX003 (ip), vehicle: saline); 105 % of control (dose: 1.5 mg/kg/injection, schedule: Q01DX009 (ip), vehicle: saline); 88 % of control (dose: 1.5 mg/kg/injection, schedule: Q04DX003 (ip), vehicle: saline); 97 % of control (dose: 3.0 mg/kg/injection, schedule: Q04DX003 (ip), vehicle: saline).
